According to PubChem BioAssay (NCI):
Several values for one entry are separate records, joined by “and”; a condition that tells them apart may be missing. Identical values can stand only once.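 Dose response: 5 concentrations. Exposure: 48 h. Format: 96-well plates. Endpoint: linear interpolation; highest concentration if not reached. Abbreviation: GI50, concentration required for 50% inhibition of growth. The concentration for full growth arrest is given as TGI.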

Assays:
Assay in all cases: NCI anticancer screen, dose series, 48 h
HT29 colon = system: HT29 colon
HCT-15 colon = system: HCT-15 colon
IGROV1 ovarian = system: IGROV1 ovarian
MALME-3M melanoma = system: MALME-3M melanoma
SK-MEL-2 melanoma = system: SK-MEL-2 melanoma
HOP-92 NSCLC = system: HOP-92 NSCLC
786-0 renal = system: 786-0 renal
SN12C renal = system: SN12C renal
SNB-19 CNS = system: SNB-19 CNS
SF-268 CNS = system: SF-268 CNS

Row | Compound | GI50 (HT29 colon) [µM] | TGI (HT29 colon) [µM] | GI50 (HCT-15 colon) [µM] | TGI (HCT-15 colon) [µM] | GI50 (IGROV1 ovarian) [µM] | TGI (IGROV1 ovarian) [µM] | GI50 (MALME-3M melanoma) [nM] | TGI (MALME-3M melanoma) [µM] | GI50 (SK-MEL-2 melanoma) [µM] | TGI (SK-MEL-2 melanoma) [µM] | GI50 (HOP-92 NSCLC) | TGI (HOP-92 NSCLC) | GI50 (786-0 renal) [µM] | TGI (786-0 renal) [µM] | GI50 (SN12C renal) [µM] | TGI (SN12C renal) [µM] | GI50 (SNB-19 CNS) [µM] | TGI (SNB-19 CNS) [µM] | TGI (SF-268 CNS) [µM] | GI50 (SF-268 CNS) [µM]
1 | CCN1CCC2(CC1)NC(=O)c1c(c3ccc(Cl)c(Cl)c3n1C)C2C#N (configuration not stated) | 1.92 | 4.11 | 1.81 | 4.75 | 3.11 | 8.97 | 1760 | 3.37 | 2.02 | 4.42 | > 100 µM | > 100 µM | 1.7 | 3.13 | 4.1 | 16.3 | 7.1 | 24.5 |  | 
2 | O=C(O)c1c([N+](=O)[O-])cc(C(F)(F)F)cc1[N+](=O)[O-] |  | > 100 |  | > 100 |  | > 100 |  |  |  | > 100 |  | > 100 µM |  | > 100 |  | > 100 |  | > 100 | > 100 | 
3 | CSc1c(S(C)=O)[nH]c2cc(Br)cc(Br)c12 (configuration not stated) |  | 72.1 |  | 70.8 |  | > 100 |  | 48.8 |  |  |  | 32.1 µM |  | 31.9 |  | 33.9 |  |  |  | 
4 | O=c1c2cc(Br)ccc2nc(-c2ccccc2)n1NCC1(O)OCC(O)C(O)C1O (configuration not stated) |  | > 100 |  | > 100 |  |  |  | > 100 |  | > 100 |  |  |  | > 100 |  | > 100 |  | > 100 | > 100 | 
5 | COc1cc(-c2cc(-c3nc4cc(Cl)c(Cl)cc4[nH]3)[nH]n2)cc(OC)c1OC | 3.42 | 12.5 | 2.89 | 11.8 | 3.86 | 18.2 | 2700 | 12.4 |  |  |  |  | 4.09 | 16.2 | 3.05 | 13.4 | 5.47 | 22.2 | 14.9 | 3.95
6 | COc1ccc(C2=CC(c3ccc(Oc4ccnc5cc(Cl)ccc45)c(OC)c3)c3c(nc(OC)[nH]c3=O)N2)cc1 (configuration not stated) | 4.24 | > 100 | 3.85 | > 100 | 26 | > 100 | > 100000 | > 100 | 31.6 | > 100 |  |  | 18.4 | > 100 | 7.03 | > 100 | 61.4 | > 100 | > 100 | 5.09
7 | COc1ccc(N2CCN(CN3CCN(c4ccc(OC)cc4)C3)C2)cc1 | > 100 | > 100 | 37 | > 100 | 17 | > 100 |  |  | > 100 | > 100 | 57.9 µM | > 100 µM | > 100 | > 100 | > 100 | > 100 | > 100 | > 100 | > 100 | > 100
8 | O=C(c1ccccn1)c1nc(-c2ccc(Cl)c(Cl)c2)nc2ccc(Cl)cc12 |  | > 100 |  | > 100 |  | > 100 |  | > 100 |  | > 100 |  |  |  | > 100 |  |  |  |  |  | 
9 | CCCCNC(=O)OCC(COc1ccccc1OC)OC(=O)NCCCC (configuration not stated) |  | > 100 |  | > 100 |  | > 100 |  | > 100 |  | > 100 |  |  |  | > 100 |  | > 100 |  | > 100 | > 100 | 
10 | COc1ccc(OC)c(/C=C/C(=O)C(C)(C)C)c1 |  | 64.1 |  | 41.2 |  | 42.6 |  | 45.3 |  |  |  | 44.1 µM |  | 36.9 |  | 45.4 |  | 32.4 |  | 
11 | COc1cc(-c2nc(-c3nnc(-c4ccc(F)c(Cl)c4)o3)c3ccccn23)cc(OC)c1OC |  |  | 4.55 | > 100 | 3.61 | > 100 |  |  | 2.27 | 5.59 | 1.55 µM | 6.26 µM | 2.93 | 78.8 | 2.42 | > 100 | 1.93 | 5.36 | 5.48 | 2.03
12 | O=c1c2[nH]c3ccccc3c2nc2n1CCS2 | > 100 | > 100 | 68.5 | > 100 |  |  | 69900 | > 100 | > 100 | > 100 | 4.25 µM | > 100 µM | > 100 | > 100 | > 100 | > 100 | > 100 | > 100 | > 100 | > 100
13 | NCCn1ccc(NC(c2ccccc2)(c2ccccc2)c2ccccc2)nc1=O |  | 31.1 |  | > 100 |  | > 100 |  | 33.4 |  | 33.4 |  | 27.4 µM |  | 31.8 |  | 42.3 |  |  | 31.4 | 
14 | O=[N+]([O-])c1cccc(/C=C/c2ccccn2)c1 |  |  | 4.84 | > 100 | 28 | > 100 | 37500 | > 100 |  |  | 24.3 µM | > 100 µM | 36.7 | > 100 | 38.8 | > 100 | 39 | > 100 | > 100 | 24.7
15 | COc1cc(OC)cc(-c2ccc(-c3ccc(C(=N)N)s3)s2)c1 |  |  | 0.294 | 1.01 | 2.03 | 3.99 | 1250 | 3.28 | 1.62 | 3.14 | 0.883 µM and 0.528 µM | 2.39 µM and 2.1 µM | 1.23 | 3.06 | 1.74 | 4.32 | 1.72 | 3.69 | 3.42 | 1.67
16 | Cc1cc(S(N)(=O)=O)c(S/C(=N\Nc2ccc([N+](=O)[O-])cc2)c2ccc(O)cc2)cc1Cl | 3.29 | 7.35 | 3.54 | 23.2 | 4.62 | 19.9 | 1730 | 4.37 | 3.9 | 53.3 |  |  | 3.8 | 13.5 | 2.38 | 5.29 | 4.46 | 16.1 | 8.19 | 2.22
